Source: US20040175368A1 (Wisconsin Alumni Research Foundation, priority 2001, published 2004)

What was measured:
[1] = Photobleaching quantum efficiency of TAM+ dyes noncovalently bound to BSA (532-nm laser photolysis); type: physicochemical
Experimental: Spectrophotometric studies were performed with a Shimadzu UV-2101PC spectrophotometer. 1-Octanol/water partition coefficients^18 (P), were determined at 25° C. using equal volumes of water and 1-octanol. Typically, five distinct solutions of each dye in the concentration range between 1 μM and 10 μM were prepared in deionized water and subsequently equilibrated with 1-octanol. After the equilibrium was reached, the final dye concentrations in the aqueous and/or organic phases were determined by absorption spectroscopy. For the measurement of photobleaching quantum efficiencies, the samples were placed in standard 10-mm (optical path) quartz cells at a distance of approximately 10 cm from the light source and photolyzed using the 532-nm line of an Nd:YAG laser model 7010 from Continuum operating at a repetition rate of 10 Hz. The defocused laser beam (circular profile with a diameter of about 5 mm) was directed to the center of the quartz cell. The absolute photolysis energy (or the number of 532-nm photons per laser pulse) was kept constant over the course of any specific experiment. The temperature-controlled cell holder allowed continuous magnetic stirring of the samples during photolysis. The photobleaching quantum efficiencies were based on the photobleaching efficiency of a classical chemical actinometer, potassium ferrioxalate, ^19,20 and determined considering only the first 5 to 10% decrease in dye concentration. The photolysis energy was adjusted to appropriate levels with the use of a calibrated solid-state joulemeter model PM30VI from Molectron.
To explore how the photoreactivity of the TAM^+dyes in complex biologic environments correlates with the observed phototoxic effects toward tumor and normal cells, the photo-bleaching efficiency of TAM^+dyes noncovalently bound to a model biologic host (bovine serum albumin, BSA) was measured. For the case of CFU-GM cells, the efficacy of photoinduced cell destruction mediated by TAM^+dyes precisely paralleled the photochemical reactivity of these photosensitizers. Both, phototoxicity (FIG. 3, lower panel) and photoreactivity (Table 1) followed the decreasing order EV^+>VPBBO^+>CV^+>VBR^+.

L1210 cells = assay: Uptake of dye by L1210 cells; type: cell-based, murine; conditions: for Dye Uptake by L1210 Cells: 1 hour at 37° C. in the dark, 12% FBS
Experimental: L1210 cells were suspended at a concentration of 1.0×10^6 cells/mL in HEPES-buffered (10 mM, pH 7.4) alpha-medium supplemented with FBS (12%), and the TAM^+dyes were added from 1.0×10^−4M stock solutions in 50% ethanol to final concentrations of […]. The cells were subsequently incubated in the dark for 1 hour at 37° C., pelleted, washed with dye-free medium, and extracted with ethanol (1 mL per […]). The dye content of each extract was determined spectrophotometrically using calibration curves assembled using suitable dilutions of authentic dye in ethanol extracts of cells that had been incubated in dye-free medium.

murine CFU-GM cells = assay: Dye-sensitized photoinactivation of normal hematopoietic CFU-GM cells, in vitro clonal assay; type: cell-based; conditions: 1.0×10^−6 M dye, 12% FBS, light up to 90 min (FIG. 3 lower panel)
RBL cells = assay: Two-photon laser scanning microscopy of intracellular dye distribution; type: cell-based, rat; conditions: 0.2 μM dye; for intracellular distribution of dye fluorescence: 10 minutes incubation
Experimental: RBL cells were incubated in the dark at a concentration of 1.1×10^5 cells/mL for periods ranging from 1 minute to 1 hour with fresh growth media containing 0.2 μM CV^+or Ev^+and subsequently incubated for 30 minutes in the dark with fresh growth media containing 0.05 μM Rh123; After a final cycle of washing and incubation for 15 minutes in fresh growth media, the media were replaced by modified Tyrode's solution containing 5 mM glucose and bovine serum albumin, and the cells were subjected to two-photon imaging. The examination of TAM^+accumulation into mitochondria was carried out through the comparison of the spatial distribution of the fluorescence of these dyes in the cellular environment with that of Rh123 (a classical mitochondrial marker^1,3) and the endogenous NAD(P)H. Fluorescence distributions within living RBL cells were obtained with a laser scanning multiphoton microscope (Bio-Rad MP1024). […] Three external detectors located in the Fourier plane of the microscope and equipped with appropriate sets of longpass dichroic and bandpass filters (from Chroma) were used for the simultaneous detection of two-photon excited fluorescence of NAD(P)H (400-500 nm), Rh123 (520-550 nm), and CV^+or EV^+(600-660 nm). To obtain sufficient fluorescence from CV^+,EV^+, and cellular NAD(P)H autofluorescence (all inefficient fluorophores), average excitation powers of approximately 18 mW were required. […]
Two-photon laser scanning microscopy^22,28 was used to obtain information on intracellular distribution and mitochondrial accumulation of CV^+and EV^+in RBL cells. […] Simultaneous two-photon images of NAD(P)H, Rh123, and TAM^+fluorescence were obtained by exciting RBL cells at 750 nm with a Ti:Sapphire laser (75 fs, 80 MHz, 18 mW) as the excitation source. No morphologic alterations or induction of fluorescence attributed to cellular photodamage was observed during the brief imaging period (approximately 3 seconds), and the bleaching of the three fluorophores was also negligible during this period. […]

SMILES | quantum efficiency of photobleaching, nitrogen-purged relative to air-equilibrated samples ([1]; BSA-bound) | photobleaching efficiency of dimer relative to monomer ([1]; BSA-bound, air-equilibrated) | photobleaching efficiency of BSA-bound dimer ([1]; air-equilibrated samples, dimer) | photobleaching efficiency of BSA-bound monomer ([1]; air-equilibrated samples, monomer) | Dye Uptake by L1210 Cells (L1210 cells) [molecules/cell] | relative efficiency of uptake by L1210 cells (in words) (L1210 cells; among the TAM+ dyes tested) | phototoxicity toward normal hematopoietic CFU-GM cells (in words) (murine CFU-GM cells) | intracellular distribution of dye fluorescence (RBL cells) | effect on mitochondria after prolonged incubation (RBL cells; 1 hour incubation, then 0.05 μM Rh123) | phototoxicity toward normal hematopoietic CFU-GM cells (in words) (murine CFU-GM cells; listed as VPBBO+)
CN(C)c1ccc(C(=C2C=CC(=[N+](C)C)C=C2)c2ccc(N(C)C)cc2)cc1 [CV^+, crystal violet] | twofold higher | eightfold higher | 1.1×10^−4 | 1.3×10^−5 | 2.14e+08 | most efficiently taken up by L1210 cells | comparatively small toxic effects | consistent with mitochondrial localization | mitochondrial inner membrane potential has been reduced | –
CCN(CC)c1ccc(C(=C2C=CC(=[N+](CC)CC)C=C2)c2ccc(N(CC)CC)cc2)cc1 [EV^+, ethyl violet] | – | – | – | – | 1.76e+08 | – | phototoxic toward both cell lines | also accumulates into cell mitochondria | – | –
CCN=C1C=CC(=C(c2ccc(N(C)C)cc2)c2ccc(N(C)C)cc2)c2ccccc21.Cl [VBR^+, victoria blue R] | – | – | – | – | 8.8e+07 | – | lowest efficacy | – | – | –
CCN=C1C=CC(=C(c2ccc(N(CC)CC)cc2)c2ccc(N(CC)CC)cc2)c2ccccc21.Cl [VPBBO^+, victoria pure blue BO] | – | – | – | – | 1.16e+08 | – | considerably more efficient in inactivating normal hematopoietic cells | – | – | intermediate efficacy
